According to ChEMBL document CHEMBL3046897, “Synthesis of 3-{4-[4-dimethylamino-6-(4-methyl-2-oxo-2H-chromen-7-yloxy)-[1,3,5]triazin-2-ylamino]-phenyl}-2-phenyl-5-(4-pyridin-2-yl-piperazin-1-ylmethyl)-thiazolidin-4-one and their biological evaluation” (2012):
Values after ≈ are worked out from the molar mass of the structure shown. Active and inactive are the calls of the source. No cut-off for these calls is given here.

Columns and labels:
Proteus vulgaris [1] = assay: Antibacterial activity against Proteus vulgaris after 24 hr by agar streak dilution method; assay type: functional
Salmonella typhi [2] = assay: Antibacterial activity against Salmonella enterica subsp. enterica serovar Typhi after 24 hr by agar streak dilution method; assay type: functional
Klebsiella pneumoniae [3] = assay: Antibacterial activity against Klebsiella pneumoniae after 24 hr by agar streak dilution method; assay type: functional
Candida albicans [4] = assay: Antifungal activity against Candida albicans at 100 ug/disk after 48 hr by paper disk diffusion method; assay type: functional; details: read-out: IZ
Aspergillus clavatus [5] = assay: Antifungal activity against Aspergillus clavatus at 100 ug/disc after 48 hr by paper disk diffusion method; assay type: functional; details: read-out: IZ
Aspergillus fumigatus [6] = assay: Antifungal activity against Aspergillus fumigatus at 100 ug/disc after 48 hr by paper disk diffusion method; assay type: functional; details: read-out: IZ
Aspergillus niger [7] = assay: Antifungal activity against Aspergillus niger at 100 ug/disk after 48 hr by paper disk diffusion method; assay type: functional; details: read-out: IZ
Shigella flexneri [8] = assay: Antibacterial activity against Shigella flexneri at 100 ug/ml after 24 hr by agar streak dilution method; assay type: functional, organism-based
Candida albicans [9] = assay: Antifungal activity against Candida albicans after 48 hr by agar streak dilution method; assay type: functional
Aspergillus clavatus [10] = assay: Antifungal activity against Aspergillus clavatus after 48 hr by agar streak dilution method; assay type: functional
Aspergillus niger [11] = assay: Antifungal activity against Aspergillus niger after 48 hr by agar streak dilution method; assay type: functional
Pseudomonas aeruginosa [12] = assay: Antibacterial activity against Pseudomonas aeruginosa after 24 hr by agar streak dilution method; assay type: functional
Escherichia coli [13] = assay: Antibacterial activity against Escherichia coli after 24 hr by agar streak dilution method; assay type: functional
Proteus vulgaris [14] = assay: Antibacterial activity against Proteus vulgaris at 100 ug/disk after 24 hr by paper disk diffusion method; assay type: functional; details: read-out: IZ
Salmonella typhi [15] = assay: Antibacterial activity against Salmonella enterica subsp. enterica serovar Typhi at 100 ug/disk after 24 hr by paper disk diffusion method; assay type: functional; details: read-out: IZ
Klebsiella pneumoniae [16] = assay: Antibacterial activity against Klebsiella pneumoniae at 100 ug/disk after 24 hr by paper disk diffusion method; assay type: functional; details: read-out: IZ
Pseudomonas aeruginosa [17] = assay: Antibacterial activity against Pseudomonas aeruginosa at 100 ug/disk after 24 hr by paper disk diffusion method; assay type: functional; details: read-out: IZ
Escherichia coli [18] = assay: Antibacterial activity against Escherichia coli at 100 ug/disk after 24 hr by paper disk diffusion method; assay type: functional; details: read-out: IZ
Bacillus subtilis [19] = assay: Antibacterial activity against Bacillus subtilis after 24 hr by agar streak dilution method; assay type: functional
Staphylococcus aureus [20] = assay: Antibacterial activity against Staphylococcus aureus after 24 hr by agar streak dilution method; assay type: functional
Bacillus subtilis [21] = assay: Antibacterial activity against Bacillus subtilis at 100 ug/disk after 24 hr by paper disk diffusion method; assay type: functional; details: read-out: IZ
Staphylococcus aureus [22] = assay: Antibacterial activity against Staphylococcus aureus at 100 ug/disc after 24 hr by paper disk diffusion method; assay type: functional; details: read-out: IZ
Aspergillus fumigatus [23] = assay: Antifungal activity against Aspergillus fumigatus after 48 hr by agar streak dilution method; assay type: functional
Klebsiella pneumoniae [24] = assay: Antibacterial activity against Klebsiella pneumoniae at 100 ug/ml after 24 hr by agar streak dilution method; assay type: functional, organism-based
Shigella flexneri [25] = assay: Antibacterial activity against Shigella flexneri after 24 hr by agar streak dilution method; assay type: functional
Candida albicans [26] = assay: Antifungal activity against Candida albicans at 100 ug/ml after 48 hr by agar streak dilution method; assay type: functional, organism-based
Aspergillus fumigatus [27] = assay: Antifungal activity against Aspergillus fumigatus at 100 ug/ml after 48 hr by agar streak dilution method; assay type: functional, organism-based
Shigella flexneri [28] = assay: Antibacterial activity against Shigella flexneri at 100 ug/disc after 24 hr by paper disk diffusion method; assay type: functional; details: read-out: IZ

Cc1cc(=O)oc2cc(Oc3nc(Nc4ccc(/N=C/c5ccccc5Br)cc4)nc(N(C)C)n3)ccc12
MIC (Proteus vulgaris [1]): 100 µg/mL (≈ 175 µM)
MIC (Salmonella typhi [2]): 100 µg/mL (≈ 175 µM)
MIC (Klebsiella pneumoniae [3]): 100 µg/mL (≈ 175 µM)
zone of inhibition at 100 µg/disc (Candida albicans [4]): 19 mm
zone of inhibition at 100 µg/disc (Aspergillus clavatus [5]): 18 mm
zone of inhibition at 100 µg/disc (Aspergillus fumigatus [6]): 20 mm
zone of inhibition at 100 µg/disc (Aspergillus niger [7]): 15 mm
Activity (Shigella flexneri [8]): inactive
MIC (Candida albicans [9]): 50 µg/mL (≈ 87.5 µM)
MIC (Aspergillus clavatus [10]): 50 µg/mL (≈ 87.5 µM)
MIC (Aspergillus niger [11]): 100 µg/mL (≈ 175 µM)
MIC (Pseudomonas aeruginosa [12]): 50 µg/mL (≈ 87.5 µM)
MIC (Escherichia coli [13]): 100 µg/mL (≈ 175 µM)
zone of inhibition at 100 µg/disc (Proteus vulgaris [14]): 13 mm
zone of inhibition at 100 µg/disc (Salmonella typhi [15]): < 10 mm
zone of inhibition at 100 µg/disc (Klebsiella pneumoniae [16]): < 10 mm
zone of inhibition at 100 µg/disc (Pseudomonas aeruginosa [17]): 18 mm
zone of inhibition at 100 µg/disc (Escherichia coli [18]): 14 mm
MIC (Bacillus subtilis [19]): 50 µg/mL (≈ 87.5 µM)
MIC (Staphylococcus aureus [20]): 100 µg/mL (≈ 175 µM)
zone of inhibition at 100 µg/disc (Bacillus subtilis [21]): 16 mm
zone of inhibition at 100 µg/disc (Staphylococcus aureus [22]): 13 mm
MIC (Aspergillus fumigatus [23]): 25 µg/mL (≈ 43.7 µM)

COc1ccc(/C=N/c2ccc(Nc3nc(Oc4ccc5c(C)cc(=O)oc5c4)nc(N(C)C)n3)cc2)cc1OC
Activity (Klebsiella pneumoniae [24]): inactive
MIC (Shigella flexneri [25]): 100 µg/mL (≈ 181 µM)
MIC (Proteus vulgaris [1]): 100 µg/mL (≈ 181 µM)
MIC (Salmonella typhi [2]): 100 µg/mL (≈ 181 µM)
zone of inhibition at 100 µg/disc (Aspergillus clavatus [5]): < 10 mm
zone of inhibition at 100 µg/disc (Aspergillus niger [7]): 12 mm
Activity (Candida albicans [26]): inactive
Activity (Aspergillus fumigatus [27]): inactive
MIC (Aspergillus clavatus [10]): 100 µg/mL (≈ 181 µM)
MIC (Aspergillus niger [11]): 100 µg/mL (≈ 181 µM)
MIC (Pseudomonas aeruginosa [12]): 100 µg/mL (≈ 181 µM)
MIC (Escherichia coli [13]): 100 µg/mL (≈ 181 µM)
zone of inhibition at 100 µg/disc (Shigella flexneri [28]): 13 mm
zone of inhibition at 100 µg/disc (Proteus vulgaris [14]): < 10 mm
zone of inhibition at 100 µg/disc (Salmonella typhi [15]): 12 mm
zone of inhibition at 100 µg/disc (Pseudomonas aeruginosa [17]): 10 mm
zone of inhibition at 100 µg/disc (Escherichia coli [18]): < 10 mm
MIC (Bacillus subtilis [19]): 100 µg/mL (≈ 181 µM)
MIC (Staphylococcus aureus [20]): 50 µg/mL (≈ 90.5 µM)
zone of inhibition at 100 µg/disc (Bacillus subtilis [21]): 12 mm
zone of inhibition at 100 µg/disc (Staphylococcus aureus [22]): 16 mm

Cc1cc(=O)oc2cc(Oc3nc(Nc4ccc(N5C(=O)CSC5c5ccccc5)cc4)nc(N(C)C)n3)ccc12 (centres undefined)
MIC (Shigella flexneri [25]): 100 µg/mL (≈ 176 µM)
MIC (Proteus vulgaris [1]): 100 µg/mL (≈ 176 µM)
MIC (Salmonella typhi [2]): 100 µg/mL (≈ 176 µM)
MIC (Klebsiella pneumoniae [3]): 100 µg/mL (≈ 176 µM)
zone of inhibition at 100 µg/disc (Candida albicans [4]): 10 mm
zone of inhibition at 100 µg/disc (Aspergillus clavatus [5]): 13 mm
zone of inhibition at 100 µg/disc (Aspergillus niger [7]): 11 mm
Activity (Aspergillus fumigatus [27]): inactive
MIC (Candida albicans [9]): 100 µg/mL (≈ 176 µM)
MIC (Aspergillus clavatus [10]): 100 µg/mL (≈ 176 µM)
MIC (Aspergillus niger [11]): 100 µg/mL (≈ 176 µM)
MIC (Pseudomonas aeruginosa [12]): 100 µg/mL (≈ 176 µM)
MIC (Escherichia coli [13]): 100 µg/mL (≈ 176 µM)
zone of inhibition at 100 µg/disc (Shigella flexneri [28]): 12 mm
zone of inhibition at 100 µg/disc (Proteus vulgaris [14]): 10 mm
zone of inhibition at 100 µg/disc (Salmonella typhi [15]): 11 mm
zone of inhibition at 100 µg/disc (Klebsiella pneumoniae [16]): < 10 mm
zone of inhibition at 100 µg/disc (Pseudomonas aeruginosa [17]): 15 mm
zone of inhibition at 100 µg/disc (Escherichia coli [18]): 14 mm
MIC (Bacillus subtilis [19]): 100 µg/mL (≈ 176 µM)
MIC (Staphylococcus aureus [20]): 100 µg/mL (≈ 176 µM)
zone of inhibition at 100 µg/disc (Bacillus subtilis [21]): 13 mm
zone of inhibition at 100 µg/disc (Staphylococcus aureus [22]): 12 mm

Cc1cc(=O)oc2cc(Oc3nc(Nc4ccc(N5C(=O)CSC5c5ccccc5C(=O)O)cc4)nc(N(C)C)n3)ccc12 (centres undefined)
MIC (Shigella flexneri [25]): 100 µg/mL (≈ 164 µM)
MIC (Proteus vulgaris [1]): 100 µg/mL (≈ 164 µM)
MIC (Salmonella typhi [2]): 100 µg/mL (≈ 164 µM)
MIC (Klebsiella pneumoniae [3]): 100 µg/mL (≈ 164 µM)
zone of inhibition at 100 µg/disc (Aspergillus clavatus [5]): 13 mm
zone of inhibition at 100 µg/disc (Aspergillus fumigatus [6]): 10 mm
zone of inhibition at 100 µg/disc (Aspergillus niger [7]): 12 mm
Activity (Candida albicans [26]): inactive
MIC (Aspergillus clavatus [10]): 100 µg/mL (≈ 164 µM)
MIC (Aspergillus niger [11]): 100 µg/mL (≈ 164 µM)
MIC (Pseudomonas aeruginosa [12]): 100 µg/mL (≈ 164 µM)
MIC (Escherichia coli [13]): 100 µg/mL (≈ 164 µM)
zone of inhibition at 100 µg/disc (Shigella flexneri [28]): 14 mm
zone of inhibition at 100 µg/disc (Proteus vulgaris [14]): 11 mm
zone of inhibition at 100 µg/disc (Salmonella typhi [15]): < 10 mm
zone of inhibition at 100 µg/disc (Klebsiella pneumoniae [16]): 12 mm
zone of inhibition at 100 µg/disc (Pseudomonas aeruginosa [17]): 14 mm
zone of inhibition at 100 µg/disc (Escherichia coli [18]): < 10 mm
MIC (Bacillus subtilis [19]): 100 µg/mL (≈ 164 µM)
MIC (Staphylococcus aureus [20]): 100 µg/mL (≈ 164 µM)
zone of inhibition at 100 µg/disc (Bacillus subtilis [21]): 14 mm
zone of inhibition at 100 µg/disc (Staphylococcus aureus [22]): 16 mm
MIC (Aspergillus fumigatus [23]): 100 µg/mL (≈ 164 µM)

Cc1cc(=O)oc2cc(Oc3nc(Nc4ccc(N5C(=O)C(CN6CCN(c7ccccn7)CC6)SC5c5ccccc5C(=O)O)cc4)nc(N(C)C)n3)ccc12 (centres undefined)
MIC (Shigella flexneri [25]): 100 µg/mL (≈ 127 µM)
MIC (Proteus vulgaris [1]): 100 µg/mL (≈ 127 µM)
MIC (Salmonella typhi [2]): 100 µg/mL (≈ 127 µM)
MIC (Klebsiella pneumoniae [3]): 100 µg/mL (≈ 127 µM)
zone of inhibition at 100 µg/disc (Candida albicans [4]): < 10 mm
zone of inhibition at 100 µg/disc (Aspergillus clavatus [5]): 15 mm
zone of inhibition at 100 µg/disc (Aspergillus fumigatus [6]): 13 mm
zone of inhibition at 100 µg/disc (Aspergillus niger [7]): 15 mm
MIC (Candida albicans [9]): 100 µg/mL (≈ 127 µM)
MIC (Aspergillus clavatus [10]): 100 µg/mL (≈ 127 µM)
MIC (Aspergillus niger [11]): 100 µg/mL (≈ 127 µM)
MIC (Pseudomonas aeruginosa [12]): 50 µg/mL (≈ 63.6 µM)
MIC (Escherichia coli [13]): 100 µg/mL (≈ 127 µM)
zone of inhibition at 100 µg/disc (Shigella flexneri [28]): 17 mm
zone of inhibition at 100 µg/disc (Proteus vulgaris [14]): 15 mm
zone of inhibition at 100 µg/disc (Salmonella typhi [15]): 11 mm
zone of inhibition at 100 µg/disc (Klebsiella pneumoniae [16]): 15 mm
zone of inhibition at 100 µg/disc (Pseudomonas aeruginosa [17]): 18 mm
zone of inhibition at 100 µg/disc (Escherichia coli [18]): 13 mm
MIC (Bacillus subtilis [19]): 50 µg/mL (≈ 63.6 µM)
MIC (Staphylococcus aureus [20]): 50 µg/mL (≈ 63.6 µM)
zone of inhibition at 100 µg/disc (Bacillus subtilis [21]): 17 mm
zone of inhibition at 100 µg/disc (Staphylococcus aureus [22]): 19 mm
MIC (Aspergillus fumigatus [23]): 100 µg/mL (≈ 127 µM)
